# Measurements published in patent US12673944B2, “Compounds having inhibitory activity against glucosylceramide synthase or pharmaceutically acceptable salt thereof, processes for preparing the same, and pharmaceutical compositions comprising the same” (YUHAN CORPORATION, priority 2019, dated 2026).
# Where two headings read alike, the source gives them in different places.
# Legend:
# [1] = target: T1, glucosylceramide synthase (GCS) (Homo sapiens, UniProt Q16739); assay: GCS enzyme inhibition assay (A549 cell lysate, NBD C6-ceramide, HPLC fluorescence); assay type: biochemical; conditions: inhibitory activity against GCS, 37° C., 90 minutes
# T1 construct: The obtained supernatant was used; host or cells: A549 cells (lysate supernatant after sonication)
# T1 sequence (Q16739 1-394): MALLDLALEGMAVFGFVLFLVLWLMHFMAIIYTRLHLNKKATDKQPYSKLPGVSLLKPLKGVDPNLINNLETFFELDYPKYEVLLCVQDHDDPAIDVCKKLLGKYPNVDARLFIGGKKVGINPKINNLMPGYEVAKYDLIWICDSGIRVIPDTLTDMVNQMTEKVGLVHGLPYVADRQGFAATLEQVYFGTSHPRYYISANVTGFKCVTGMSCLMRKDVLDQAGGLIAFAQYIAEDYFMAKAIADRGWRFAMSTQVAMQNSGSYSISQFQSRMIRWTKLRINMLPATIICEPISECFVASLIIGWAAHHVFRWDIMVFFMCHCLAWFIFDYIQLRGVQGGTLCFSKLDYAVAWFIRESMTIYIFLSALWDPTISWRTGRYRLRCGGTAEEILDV
# Experimental: Ibiglustat, known as a GCS inhibitor, was used as a control.
# After the cells attached to the culture dish were washed with phosphate buffered saline (PBS), the cells were scraped off with a cell scraper and then centrifuged (4000 rpm, 3 min, 4° C.) to collect the cells in a 50 ml tube. The cell pellets were suspended in a lysis buffer (50 mM HEPES, pH 7.3, containing 1× the protease/phosphatase inhibitor cocktail), lysed by sonication, and then the lysate was centrifuged (13000 rpm, 10 min, 4° C.). The obtained supernatant was used for the quantitative analysis of proteins. The amount of proteins was measured using the BCA protein assay kit, using bovine serum albumin as a standard.
# Enzymatic reactions were initiated by sequentially adding the following reaction materials to a 96 deep-well plate. Thereafter, the enzymatic reactions were performed at 37° C. for 90 minutes.
# The enzymatic reactions were stopped by adding 100 μl of chloroform/methanol (2:1, v/v). After vortexing for 15 seconds, each mixture was centrifuged (4000 rpm, 10 min, 18° C.). The lower layer (50 μl) was transferred to a new 96 deep-well plate and dried with a reduced concentrator.
# Data analysis was performed by the following equations. % Area(Sample)=Area(GlcCer)/[Area(Cer)+Area(GlcCer)]×100 % GCS activity=[Area(Sample)−Area(ibiglustat)]/[Area(DMSO)−Area(ibiglustat)]×100
# [2] = test system: GM1 production in Jurkat cells; assay: cells; assay type: cell-based
Compound,IC50 [1] [nM],"IC50 ([2]; Homo sapiens, Jurkat, 72 h) [nM]",IC50 [2] [nM]
"CCCCc1ccc(-c2ccc3c(c2)OCC(C)(C)C3NC(=O)O[C@@H]2CN3CCC2CC3)cc1 (stereo partly drawn) [Example 256, (S)-quinuclidin-3-yl (7-(4-butylphenyl)-3,3-dimethylchroman-4-yl)carbamate]",0.39,0.2,
"COc1ccc(Cl)c(-c2ccc3c(c2)OCCC3NC(=O)O[C@@H]2CN3CCC2CC3)c1 (stereo partly drawn) [Example 65, (S)-quinuclidin-3-yl (7-(2-chloro-5-methoxyphenyl)chroman-4-yl)carbamate]",0.22,1.18,
"CC1(C)COc2cc(/C=C/c3cccc(F)c3)ccc2C1NC(=O)O[C@@H]1CN2CCC1CC2 (stereo partly drawn) [Example 289, (S)-quinuclidin-3-yl (7-((E)-3-fluorostyryl)-3,3-dimethylchroman-4-yl)carbamate]",0.61,1.4,
"CN(C)c1cc(-c2ccc3c(c2)OCC(C)(C)C3NC(=O)O[C@@H]2CN3CCC2CC3)ccc1F (stereo partly drawn) [Example 171, (S)-quinuclidin-3-yl (7-(3-(dimethylamino)-4-fluorophenyl)-3,3-dimethylchroman-4-yl)carbamate]",0.79,5.23,
"CC1(C)COc2cc(-c3cccc4cc[nH]c34)ccc2C1NC(=O)O[C@@H]1CN2CCC1CC2 (stereo partly drawn) [Example 173, (S)-quinuclidin-3-yl (7-(1H-indol-7-yl)-3,3-dimethylchroman-4-yl)carbamate]",1.17,2.95,
"CC1(NC(=O)O[C@@H]2CN3CCC2CC3)CCOc2cc(-c3ccc4c(c3)OC(F)(F)O4)ccc21 (stereo partly drawn) [Example 307, (S)-quinuclidin-3-yl (7-(2,2-difluorobenzo[d][1,3]dioxol-5-yl)-4-methylchroman-4-yl)carbamate]",1.07,3.1,
"CC1(C)COc2cc(-c3ccc(C#N)c(F)c3)ccc2C1NC(=O)O[C@@H]1CN2CCC1CC2 (stereo partly drawn) [Example 291, (S)-quinuclidin-3-yl (7-(4-cyano-3-fluorophenyl)-3,3-dimethylchroman-4-yl)carbamate]",1.03,8.9,
"CC1(C)COc2cc(-c3cncc4ccccc34)ccc2C1NC(=O)O[C@@H]1CN2CCC1CC2 (stereo partly drawn) [Example 192, (S)-quinuclidin-3-yl (7-(isoquinolin-4-yl)-3,3-dimethylchroman-4-yl)carbamate]",0.92,,1.35
"CC1(C)COc2cc(-c3cc(F)c(F)cc3F)ccc2C1NC(=O)O[C@@H]1CN2CCC1CC2 (stereo partly drawn) [Example 200, (S)-quinuclidin-3-yl (3,3-dimethyl-7-(2,4,5-trifluorophenyl)chroman-4-yl)carbamate]",0.49,1.94,
"COCOc1cccc(-c2ccc3c(c2)OCCC3NC(=O)O[C@@H]2CN3CCC2CC3)c1 (stereo partly drawn) [Example 6, (S)-quinuclidin-3-yl (7-(3-(methoxymethoxy)phenyl)chroman-4-yl)carbamate]",0.67,7.18,
"COc1ccc(-c2ccc3c(c2)OCCC3NC(=O)O[C@@H]2CN3CCC2CC3)cc1 (stereo partly drawn) [Example 19, (S)-quinuclidin-3-yl (7-(4-methoxyphenyl)chroman-4-yl)carbamate]",8.32,30.5,
"COc1cc(OC)cc(-c2ccc3c(c2)OCC(C)(C)C3NC(=O)O[C@@H]2CN3CCC2CC3)c1 (stereo partly drawn) [Example 114, (S)-quinuclidin-3-yl (7-(3,5-dimethoxyphenyl)-3,3-dimethylchroman-4-yl)carbamate]",0.75,2.81,
"CCOc1ccc(-c2ccc3c(c2)OCC(C)(C)C3NC(=O)O[C@@H]2CN3CCC2CC3)cc1 (stereo partly drawn) [Example 209, (S)-quinuclidin-3-yl (7-(4-ethoxyphenyl)-3,3-dimethylchroman-4-yl)carbamate]",0.34,0.01,
"COc1ccc(-c2ccc3c(c2)OCC(C)(C)C3NC(=O)O[C@@H]2CN3CCC2CC3)cc1C(F)(F)F (stereo partly drawn) [Example 188, (S)-quinuclidin-3-yl (7-(4-methoxy-3-(trifluoromethyl)phenyl)-3,3-dimethylchroman-4-yl)carbamate]",0.75,,4.59
"C=Cc1ccccc1-c1ccc2c(c1)OCC(C)(C)C2NC(=O)O[C@@H]1CN2CCC1CC2 (stereo partly drawn) [Example 274, (S)-quinuclidin-3-yl (3,3-dimethyl-7-(2-vinylphenyl)chroman-4-yl)carbamate]",0.58,1.7,
"Cc1cc(F)ccc1-c1ccc2c(c1)OCC(C)(C)C2NC(=O)O[C@@H]1CN2CCC1CC2 (stereo partly drawn) [Example 227, (S)-quinuclidin-3-yl (7-(4-fluoro-2-methylphenyl)-3,3-dimethylchroman-4-yl)carbamate]",0.56,4.5,
"CC1(C)COc2cc(-c3ccccc3C(F)(F)F)ccc2C1NC(=O)O[C@@H]1CN2CCC1CC2 (stereo partly drawn) [Example 185, (S)-quinuclidin-3-yl (3,3-dimethyl-7-(2-(trifluoromethyl)phenyl)chroman-4-yl)carbamate]",0.67,0.98,
"COc1ccc(Cl)c(-c2cc3c(cc2F)C(NC(=O)O[C@@H]2CN4CCC2CC4)C(C)(C)CO3)c1 (stereo partly drawn) [Example 340, (S)-quinuclidin-3-yl (7-(2-chloro-5-methoxyphenyl)-6-fluoro-3,3-dimethylchroman-4-yl)carbamate]",0.48,2.4,
"O=C(NC1CCOc2cc(-c3cccc(C(F)(F)F)c3)ccc21)O[C@@H]1CN2CCC1CC2 (stereo partly drawn) [Example 3, (S)-quinuclidin-3-yl (7-(3-(trifluoromethyl)phenyl)chroman-4-yl)carbamate]",0.7,2.13,
"Cn1ncc2ccc(-c3ccc4c(c3)OCCC4NC(=O)O[C@@H]3CN4CCC3CC4)cc21 (stereo partly drawn) [Example 50, (S)-quinuclidin-3-yl (7-(1-methyl-1H-indazol-6-yl)chroman-4-yl)carbamate]",3.98,25.9,
"CC1(C)COc2cc(-c3ccc(N4CCOCC4)c(Cl)c3)ccc2C1NC(=O)O[C@@H]1CN2CCC1CC2 (stereo partly drawn) [Example 205, (S)-quinuclidin-3-yl (7-(3-chloro-4-morpholinophenyl)-3,3-dimethylchroman-4-yl)carbamate]",0.65,0.25,
"COc1cccc(-c2ccc3c(c2)OCC(C)(C)C3NC(=O)O[C@@H]2CN3CCC2CC3)n1 (stereo partly drawn) [Example 246, (S)-quinuclidin-3-yl (7-(6-methoxypyridin-2-yl)-3,3-dimethylchroman-4-yl)carbamate]",0.75,1.3,
"CC1(C)COc2cc(-c3ccc(F)c(Cl)c3)ccc2C1NC(=O)O[C@@H]1CN2CCC1CC2 (stereo partly drawn) [Example 236, (S)-quinuclidin-3-yl (7-(3-chloro-4-fluorophenyl)-3,3-dimethylchroman-4-yl)carbamate]",0.75,3.6,
"C=Cc1ccc(-c2ccc3c(c2)OCC(C)(C)C3NC(=O)O[C@@H]2CN3CCC2CC3)cc1 (stereo partly drawn) [Example 272, (S)-quinuclidin-3-yl (3,3-dimethyl-7-(4-vinylphenyl)chroman-4-yl)carbamate]",0.89,4.4,
"CN(C)c1cccc(-c2ccc3c(c2)SCCC3NC(=O)O[C@@H]2CN3CCC2CC3)c1 (stereo partly drawn) [Example 326, (S)-quinuclidin-3-yl (7-(3-(dimethylamino)phenyl)thiochroman-4-yl)carbamate]",0.64,10.3,
"CC1(C)CSc2ccc(-c3ccc(C(F)(F)F)cc3)cc2C1NC(=O)O[C@@H]1CN2CCC1CC2 (stereo partly drawn) [Example 329, (S)-quinuclidin-3-yl (3,3-dimethyl-6-(4-(trifluoromethyl)phenyl)thiochroman-4-yl)carbamate]",14.9,33.8,
"CCOc1cc(-c2ccc3c(c2)OCC(C)(C)C3NC(=O)O[C@@H]2CN3CCC2CC3)c(Cl)cc1Cl (stereo partly drawn) [Example 134, (S)-quinuclidin-3-yl (7-(2,4-dichloro-5-ethoxyphenyl)-3,3-dimethylchroman-4-yl)carbamate]",2.83,12.7,
"CC(C)(C)c1cccc(-c2ccc3c(c2)OCCC3NC(=O)O[C@@H]2CN3CCC2CC3)c1 (stereo partly drawn) [Example 25, (S)-quinuclidin-3-yl (7-(3-(tert-butyl)phenyl)chroman-4-yl)carbamate]",0.65,1.07,
"CC1(C)COc2cc(-c3ccc(C4CCOCC4)cc3)ccc2C1NC(=O)O[C@@H]1CN2CCC1CC2 (stereo partly drawn) [Example 202, (S)-quinuclidin-3-yl (3,3-dimethyl-7-(4-(tetrahydro-2H-pyran-4-yl)phenyl)chroman-4-yl)carbamate]",0.28,0.47,
"CC1(C)COc2cc(-c3ccc(CC#N)cc3)ccc2C1NC(=O)O[C@@H]1CN2CCC1CC2 (stereo partly drawn) [Example 280, (S)-quinuclidin-3-yl (7-(4-(cyanomethyl)phenyl)-3,3-dimethylchroman-4-yl)carbamate]",0.62,9.3,
